{"source": "patent US20110305911A1", "about": "“ARTICLE HAVING ANTIFOULING PROPERTIES AND INTENDED TO BE USED IN AQUATIC APPLICATIONS, PARTICULARLY MARINE APPLICATIONS” (BLUESTAR SILICONES FRANCE, priority 2008, published 2011)", "assay": "Solubility of the catalyst", "format": "physicochemical", "details": "ambient temperature (25° C.)"}
{"smiles": "CC(C)C/C(=C/C(=O)C(C)(C)C)[O][Zn][O]/C(=C\\C(=O)C(C)(C)C)CC(C)C", "note": "[Catalyst (6), zinc bis(2,2,7-trimethyl-3,5-octanedionate)]", "values": [{"measurement": "solubility", "result": "soluble in organic solvents, even in alkanes, and in silicone oils"}]}
